This is an account of results in the NIST ThermoML archive (doi:10.1016/j.fluid.2014.03.001).

± gives the expanded uncertainty stated by the source.

The conditions of the data set: Crystal 1; DTA.
Consider `CCCCCCCC/C=C\CCCCCCCC(=O)OCC` [ethyl (Z)-9-octadeceneoate], for which the Normal melting temperature is -18.8 ± 0.7 °C.

As to `CCCCCCCCCCCCCCCCCC(=O)OCC` [ethyl octadecanoate], the Normal melting temperature was 34.7 ± 0.7 °C.

`CCCCCCCCCCCCCC(=O)OCC` [ethyl tetradecanoate]: the Normal melting temperature was determined as 14.2 ± 0.5 °C.
